Data reported in patent US20040072206A1, “Method for identifying modulators of transcription” (priority 2000, published 2004).

Target: T1, B. subtilis RNAP (Bacillus subtilis, UniProt P37870+P37871)
T1 construct: endogenous in cells; host or cells: Bacillus subtilis strain PL37 (built from strain 168)
Test: Dual reporter assay in strain PL37: test reporter Pxyl-lacZ and ratio of control to test reporter (RES:MUG)
Type: cell-based
Settings: for Ratio of the control reporter (RES): test reporter (MUG): strain PL37, DMSO control […]
Description: 20 known antibiotics were tested at a range of concentrations to determine their effect on test and control reporters within the assay. […] Cultures of PL37 grown in PAB, were diluted to 0.05 A600 and then grown for 2 hours at 37° C. in PAB supplemented with 0.02 mM IPTG. Cells were pelleted and frozen. They were later resuspended and diluted in PAB supplemented with 0.02 mM IPTG and grown at 37° C. to early exponential phase. Cultures were then diluted to 0.05 A600 in PAB and added in 20 μl volumes to wells of microtitre plates containing 20 μl volumes of the antibiotics. Plates were incubated at 37° C. for two hours, and assay mix was added to detect reporter enzyme activity (see below).
Following the addition of 160 μl of assay mix (1.3×Z buffer containing 94 μg/ml lysozyme, 8.4 μg/ml 4-methylumbelliferyl-β-D-galactoside, 0.53 μg/ml resorufin-β-D-glucuronide and 0.05% Triton) to each well, the microtitre plate was incubated in the dark for 30 mini or 1 hour at room temperature. Fluorescence was read on a BMG FLUOstar Galaxy at excitation/emission 355/460 nm and 544/590 nm, respectively, with gains set at 5 and 25, respectively.

[1] = Dilution Number 1 (highest concentration tested: 128, 16 or 0.5 μg/ml depending on antibiotic)
[2] = Dilution Number 11 (lowest concentration tested: 0.125, 0.016 or 0.0005 μg/ml depending on antibiotic)

T1 sequence (P37871 whole entry): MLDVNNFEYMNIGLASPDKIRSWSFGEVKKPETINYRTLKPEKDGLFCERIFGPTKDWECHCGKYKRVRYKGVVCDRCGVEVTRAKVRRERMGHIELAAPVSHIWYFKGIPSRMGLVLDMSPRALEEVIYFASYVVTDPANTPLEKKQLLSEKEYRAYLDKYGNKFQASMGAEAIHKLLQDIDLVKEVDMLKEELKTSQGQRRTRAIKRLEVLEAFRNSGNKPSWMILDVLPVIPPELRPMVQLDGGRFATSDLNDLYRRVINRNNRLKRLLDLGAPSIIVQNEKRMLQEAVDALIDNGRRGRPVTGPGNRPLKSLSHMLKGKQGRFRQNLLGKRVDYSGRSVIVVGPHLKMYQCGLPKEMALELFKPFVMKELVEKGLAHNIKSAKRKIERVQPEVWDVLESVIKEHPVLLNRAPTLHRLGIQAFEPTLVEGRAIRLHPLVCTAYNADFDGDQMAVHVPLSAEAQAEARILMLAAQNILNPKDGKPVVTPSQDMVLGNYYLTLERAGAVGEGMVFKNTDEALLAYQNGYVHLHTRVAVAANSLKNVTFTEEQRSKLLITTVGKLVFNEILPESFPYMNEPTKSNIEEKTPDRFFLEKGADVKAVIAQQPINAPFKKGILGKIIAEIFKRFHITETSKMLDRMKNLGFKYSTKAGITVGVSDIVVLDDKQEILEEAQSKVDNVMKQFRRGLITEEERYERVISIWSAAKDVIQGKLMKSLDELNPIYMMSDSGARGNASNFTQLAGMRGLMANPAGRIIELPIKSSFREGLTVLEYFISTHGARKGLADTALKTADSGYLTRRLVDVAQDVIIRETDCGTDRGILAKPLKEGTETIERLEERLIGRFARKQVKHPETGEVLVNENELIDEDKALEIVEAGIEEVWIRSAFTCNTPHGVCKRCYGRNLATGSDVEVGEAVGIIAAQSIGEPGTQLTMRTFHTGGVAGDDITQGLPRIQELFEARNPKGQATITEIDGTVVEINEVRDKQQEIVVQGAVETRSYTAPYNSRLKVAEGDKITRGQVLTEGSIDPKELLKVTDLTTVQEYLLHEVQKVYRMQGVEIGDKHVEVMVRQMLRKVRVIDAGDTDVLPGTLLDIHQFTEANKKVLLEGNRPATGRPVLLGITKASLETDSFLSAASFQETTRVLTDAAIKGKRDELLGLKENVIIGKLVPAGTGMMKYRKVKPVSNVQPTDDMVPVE
T1 sequence (P20429 whole entry, further chain): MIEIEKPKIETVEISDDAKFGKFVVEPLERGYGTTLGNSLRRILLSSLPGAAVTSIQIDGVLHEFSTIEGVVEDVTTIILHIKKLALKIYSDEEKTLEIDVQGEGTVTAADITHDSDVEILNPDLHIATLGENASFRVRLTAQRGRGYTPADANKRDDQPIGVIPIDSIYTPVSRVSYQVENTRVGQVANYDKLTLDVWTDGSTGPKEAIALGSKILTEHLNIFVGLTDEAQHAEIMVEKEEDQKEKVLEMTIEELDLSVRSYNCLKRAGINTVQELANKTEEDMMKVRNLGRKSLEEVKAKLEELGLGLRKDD
T1 sequence (O35011 whole entry, further chain): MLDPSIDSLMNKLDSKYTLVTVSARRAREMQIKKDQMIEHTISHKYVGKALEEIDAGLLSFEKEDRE
T1 sequence (P37870 whole entry): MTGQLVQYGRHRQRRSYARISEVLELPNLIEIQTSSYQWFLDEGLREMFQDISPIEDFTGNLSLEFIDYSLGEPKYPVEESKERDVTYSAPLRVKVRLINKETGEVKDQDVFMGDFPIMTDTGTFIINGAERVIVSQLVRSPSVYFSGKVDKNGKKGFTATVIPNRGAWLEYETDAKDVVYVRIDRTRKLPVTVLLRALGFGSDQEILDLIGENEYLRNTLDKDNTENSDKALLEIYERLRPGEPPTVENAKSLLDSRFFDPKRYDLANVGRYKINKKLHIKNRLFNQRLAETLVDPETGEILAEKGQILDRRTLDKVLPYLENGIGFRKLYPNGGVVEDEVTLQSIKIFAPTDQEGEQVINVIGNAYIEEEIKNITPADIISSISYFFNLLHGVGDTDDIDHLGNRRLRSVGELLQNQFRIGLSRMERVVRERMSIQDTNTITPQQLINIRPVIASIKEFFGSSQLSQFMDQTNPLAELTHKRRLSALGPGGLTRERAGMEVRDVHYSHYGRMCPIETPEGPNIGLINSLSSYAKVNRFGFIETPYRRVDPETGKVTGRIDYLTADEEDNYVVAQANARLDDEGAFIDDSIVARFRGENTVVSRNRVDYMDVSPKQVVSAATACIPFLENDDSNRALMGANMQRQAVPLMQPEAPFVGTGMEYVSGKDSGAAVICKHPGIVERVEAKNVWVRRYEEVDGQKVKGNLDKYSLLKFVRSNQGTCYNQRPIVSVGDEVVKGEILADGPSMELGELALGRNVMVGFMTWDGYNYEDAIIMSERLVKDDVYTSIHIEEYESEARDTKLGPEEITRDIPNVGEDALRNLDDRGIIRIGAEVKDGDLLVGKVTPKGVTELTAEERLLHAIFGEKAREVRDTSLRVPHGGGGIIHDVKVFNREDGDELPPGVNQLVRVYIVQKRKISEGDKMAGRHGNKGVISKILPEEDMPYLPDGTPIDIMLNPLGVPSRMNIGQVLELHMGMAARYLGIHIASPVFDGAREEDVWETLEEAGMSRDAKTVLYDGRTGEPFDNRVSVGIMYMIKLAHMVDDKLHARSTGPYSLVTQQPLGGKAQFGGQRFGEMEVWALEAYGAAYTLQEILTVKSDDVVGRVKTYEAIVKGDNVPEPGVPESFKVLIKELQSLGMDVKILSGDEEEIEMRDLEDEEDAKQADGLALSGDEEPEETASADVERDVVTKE

Row | Molecule | Ratio of the control reporter (RES): test reporter (MUG) [1] | Ratio of the control reporter (RES): test reporter (MUG) (Dilution Number 2) | Ratio of the control reporter (RES): test reporter (MUG) (Dilution Number 3) | Ratio of the control reporter (RES): test reporter (MUG) (Dilution Number 4) | Ratio of the control reporter (RES): test reporter (MUG) (Dilution Number 5) | Ratio of the control reporter (RES): test reporter (MUG) (Dilution Number 6) | Ratio of the control reporter (RES): test reporter (MUG) (Dilution Number 7) | Ratio of the control reporter (RES): test reporter (MUG) (Dilution Number 8) | Ratio of the control reporter (RES): test reporter (MUG) (Dilution Number 9) | Ratio of the control reporter (RES): test reporter (MUG) (Dilution Number 10) | Ratio of the control reporter (RES): test reporter (MUG) [2] | Reporter expression (both reporter activities) (strain PL37, FIG. 5 and FIG. 6)
1 | CO[C@@H]1[C@@H](OC(N)=O)[C@@H](O)[C@H](Oc2ccc3c(O)c(NC(=O)c4ccc(O)c(CC=C(C)C)c4)c(=O)oc3c2C)OC1(C)C [Novobiocin] | 1.33 | 1.70 | 1.66 | 1.49 | 1.24 | 0.81 | 0.85 | 1.05 | 1.14 | 1.18 | 1.19 | –
2 | O=C(N[C@H](CO)[C@H](O)c1ccc([N+](=O)[O-])cc1)C(Cl)Cl [Chloramphenicol] | 1.10 | 1.22 | 1.27 | 1.40 | 1.90 | 1.51 | 1.20 | 1.16 | 1.14 | 1.13 | 1.17 | –
3 | CC1(C)S[C@@H]2[C@H](NC(=O)C(C(=O)O)c3ccccc3)C(=O)N2[C@H]1C(=O)O (some centres unmarked) [Carbenicillin] | 1.37 | 1.49 | 1.59 | 1.63 | 1.66 | 1.64 | 1.60 | 1.03 | 1.00 | 1.05 | 1.07 | –
4 | CC[C@@]1([C@@H]2O[C@@H]([C@H]3O[C@@](O)(CO)[C@H](C)C[C@@H]3C)C[C@@H]2C)CC[C@H]([C@]2(C)CC[C@]3(C[C@H](O)[C@@H](C)[C@@H]([C@@H](C)[C@@H](OC)[C@H](C)C(=O)O)O3)O2)O1 [Monensin] | 1.74 | 1.42 | 1.45 | 1.79 | 2.06 | 2.00 | 1.88 | 1.74 | 1.54 | 1.37 | 1.33 | –
5 | CC1(C)S[C@@H]2[C@H](NC(=O)Cc3ccccc3)C(=O)N2[C@H]1C(=O)O [Penicillin G] | 1.77 | 1.72 | 1.70 | 1.76 | 1.81 | 1.80 | 1.84 | 1.64 | 1.01 | 1.01 | 1.07 | –
6 | CN[C@H](CC(C)C)C(=O)N[C@H]1C(=O)N[C@@H](CC(N)=O)C(=O)N[C@H]2C(=O)N[C@H]3C(=O)N[C@H](C(=O)N[C@H](C(=O)O)c4cc(O)cc(O)c4-c4cc3ccc4O)[C@H](O)c3ccc(c(Cl)c3)Oc3cc2cc(c3O[C@@H]2O[C@H](CO)[C@@H](O)[C@H](O)[C@H]2O[C@H]2C[C@](C)(N)[C@H](O)[C@H](C)O2)Oc2ccc(cc2Cl)[C@H]1O [Vancomycin] | – | – | – | – | – | – | 1.03 | 1.04 | 1.07 | 1.11 | 1.12 | –
7 | CC1=C(C(=O)O)N2C(=O)[C@@H](NC(=O)[C@H](N)c3ccccc3)[C@H]2SC1 [Cephalexin] | 1.73 | 1.78 | 1.76 | 1.62 | 1.68 | 1.81 | – | – | – | – | – | –
8 | Polymyxin | 1.19 | 1.22 | 1.21 | 1.23 | 1.44 | 1.24 | 1.20 | 1.15 | 1.16 | 1.16 | 1.17 | –
9 | CC(O)C(=O)O.COc1cc(Cc2cnc(N)nc2N)cc(OC)c1OC [Trimethoprim Lactate] | 0.62 | 0.55 | 0.54 | 0.52 | 0.54 | 0.58 | 0.68 | 0.65 | 0.63 | 0.81 | 1.00 | –
10 | CN[C@@H]1[C@H](O)[C@H](NC)[C@H]2O[C@@]3(O)C(=O)C[C@@H](C)O[C@H]3O[C@@H]2[C@H]1O [Spectinomycin] | 1.30 | 1.23 | 1.21 | 1.14 | 1.16 | 1.14 | 1.08 | 1.10 | 1.10 | 1.10 | 1.13 | remained unchanged
11 | CCn1cc(C(=O)O)c(=O)c2ccc(C)nc21 [Nalidixic Acid] | 1.50 | 1.76 | 1.74 | 0.87 | 0.68 | 0.91 | 1.18 | 1.25 | 1.26 | 1.26 | 1.22 | –
12 | CC[C@H]1OC(=O)[C@H](C)[C@@H](O[C@H]2C[C@@](C)(OC)[C@@H](O)[C@H](C)O2)[C@H](C)[C@@H](O[C@@H]2O[C@H](C)C[C@H](N(C)C)[C@H]2O)[C@](C)(O)C[C@@H](C)C(=O)[C@H](C)[C@@H](O)[C@]1(C)O [Erythromycin] | – | – | – | 1.45 | 1.58 | 1.72 | 1.73 | 1.71 | 1.56 | – | – | –
13 | CC1(C)S[C@@H]2[C@H](NC(=O)[C@H](N)c3ccccc3)C(=O)N2[C@H]1C(=O)O [Ampicillin] | – | – | – | – | – | – | – | – | 1.16 | 1.02 | 1.06 | –
14 | CCn1cc(C(=O)O)c(=O)c2cc3c(cc21)OCO3 [Oxolinic Acid] | 0.89 | 1.33 | 1.63 | 1.77 | 2.02 | 1.86 | 0.96 | 1.06 | 1.05 | 1.14 | 1.17 | –
